In data set [1] the test system is gram positive bacteria. Put plainly: MIC by broth microdilution (NCCLS), with or without 30% bovine serum (Example 19). The data set is classed as cell-based. As to the method: (§1) The compounds were prepared according to the examples above and the methods described in U.S. Patent Application Publication No. 2004/0142883. Individual dalbavancin compounds were purified by HPLC. […] Before dissolution, each sample was analyzed by HPLC and quantified. […] Louis, Mo.), Gentamycin (GE) (Sigma Chemical Co., St. Louis, Mo.), Penicillin G (Pen.G) (Sigma Chemical Co., St. Louis, Mo.), and Amphotericin B (Amph.B) (Sigma Chemical Co., St. Louis, Mo.). The microorganisms used were reference strains obtained from the American Type Culture Collection (ATCC) (Rockville, Md.), SmithKline and French Laboratories (SKF), and the Upjohn Company (UC) (Kalamazoo, Mich.).

For data set [2], the system named is gram-negative bacteria. The data set is described as above. The data set is classed as cell-based. As to the method: as §1
In data set [3] the test system is Candida albicans SKF 2270. The data set is described as above. The data set is classed as cell-based. As to conditions: SKF2270. As to the method:
MICs were determined by the broth microdilution methodology following the standard NCCLS procedure (NCCLS Document M7-A6, Vol. 23, No. 2, “Methods for dilution antimicrobial susceptibility tests for bacteria that grow aerobically.” Approved Guideline. January 2003, which can be herein incorporated by reference in its entirety), with or without 30% adult bovine serum (BS) (PAA Laboratories GmBH, Haidmannweg Pasching Austria), using bacterial innocula at approximately 5×10^5 CFU/ml. The media employed included cation-adjusted Müller Hinton broth (Difco Laboratories, Detroit, Mich.) that was used that was adjusted with CaCl2 and MgCl2 to a final concentration of 20 mg/L and 10 mg/L, respectively. Tests were read following 20-24 hours of incubation at 35° C.

Data set [4] has as its system gram-positive bacteria. Put plainly: MIC by broth microdilution (NCCLS), IsoB0 and reference compounds. The data set is classed as cell-based. As to the method: Müller Hinton broth (Difco Laboratories, Detroit, Mich., USA) adjusted with CaCl2 and MgCl2 to a final concentrations of 20 mg/L and 10 mg/L respectively.
Adult bovine serum (BS) (batch A05123-159 PAA Laboratories GmBH Haidmannweg Pasching Austria).
The microorganisms used are reference standard strains from the American Type Culture Collection (ATCC, Rockville, USA), Smith Kline and French Laboratories (SKF) and the Upjohn Company (UC, Kalamazoo, Mich., USA).
(§2) MICs were determined by the broth microdilution methodology following the standard NCCLS procedure, with or without 30% bovine serum, using bacterial inocula of approximately 5×10^5 CFU/mL. Tests were read after 20-24 h incubation at 35° C.

Data set [5] can be described thus: In vivo biological activity of IsoB0.
Data set [6] concerns gram-negative bacteria. Briefly: MIC by broth microdilution (NCCLS), IsoB0 and reference compounds. The data set is classed as cell-based. As to the method: as §2
Data set [7] concerns Candida albicans SKF2270. The data set is described as above. The data set is classed as cell-based.
Data set [8] has as its system S. aureus. Put plainly: MIC of study organisms (NCCLS microdilution). The data set is classed as cell-based. As to conditions: Staphylococcus aureus. As to the method: (§3) MICs were determined in MHB by standard NCCLS microdilution techniques. […] All MICs were performed at least in duplicate.
On the set-up of data set [9]: species or system Sprague-Dawley rats. As to conditions: rat, in vivo, iv, 20 mg/kg. As to the method:
Mass balance studies were conducted to determine the excretion pattern of dalbavancin following a single intravenous (IV) infusion of dalbavancin in male rats. […] Water and methanol cage washes were also collected.

Data set [10] addresses N,N′-diacetyl-Lys-D-Ala-D-Ala. Briefly: ITC, 37 °C, [HSA] 0 µM.
In data set [11] the target is human serum proteins. Put plainly: cell-based or functional assay.
Data set [12] has as its target N,N′-diacetyl-Lys-D-Ala-D-Ala. Briefly: ITC, 25 °C, free dalbavancin.
Data set [13] addresses N,N′-diacetyl-Lys-D-Ala-D-Ala. Briefly: ITC, 25 °C, apparent, 104 µM HSA present.
For data set [14], the target named is N,N′-diacetyl-Lys-D-Ala-D-Ala. Briefly: ITC, 25 °C, apparent, 288 µM HSA present.
For data set [15], the target named is N,N′-diacetyl-Lys-D-Ala-D-Ala. Put plainly: ITC, 25 °C, apparent, 430 µM HSA present.
In data set [16] the target is N,N′-diacetyl-Lys-D-Ala-D-Ala. Put plainly: ITC, 25 °C, apparent, 601 µM HSA present.
Data set [17] addresses N,N′-diacetyl-Lys-D-Ala-D-Ala. Briefly: ITC, 37 °C, apparent, 482 µM HSA present.
Data set [18] relates to S. pneumoniae. Put plainly: MIC of study organisms (NCCLS microdilution). The data set is classed as cell-based. As to conditions: S. pneumoniae strain 10813. As to the method: as §3
The target of data set [19] is N,N′-diacetyl-Lys-D-Ala-D-Ala. Briefly: ITC, 10 °C, [HSA] 0 µM.
In data set [20] the target is N,N′-diacetyl-Lys-D-Ala-D-Ala. Put plainly: ITC, 25 °C, [HSA] 0 µM.
Data set [21] addresses N,N′-diacetyl-Lys-D-Ala-D-Ala. Briefly: ITC, 25 °C, 513 µM HSA present.
The mark [22] stands for this setting: E. faecalis ATCC29212 ref. strain.
Setting [23] is: Enterococcus faecalis, ATCC7080.
Where [24] appears, read: S. aureus ATCC29213 ref. strain.
Where [25] appears, read: Staphylococcus aureus Smith ATCC19636.
The mark [26] stands for this setting: Pseudomonas aeruginosas ATCC 10145.

Converted amounts (≈) assume the structure as drawn. “And” between values parts separate entries of the source, which are not always exact repeats. Equal values may be shown once. Read-outs that look alike come from different tables or passages of the source.

As for `CNC1C(=O)NC2Cc3ccc(c(Cl)c3)Oc3cc4cc(c3OC3OC(C(=O)O)C(O)C(O)C3NC(=O)CCCCCCCCC(C)C)Oc3ccc(cc3Cl)C(O)C3NC(=O)C(NC(=O)C4NC(=O)C(NC2=O)c2cc(O)cc(c2)Oc2cc1ccc2O)c1ccc(O)c(c1)-c1c(OC2OC(CO)C(O)C(O)C2O)cc(O)cc1C(C(=O)NCCCN(C)C)NC3=O` [Composition B0, ristomycin A aglycone, 5,31-dichloro-38-de(methoxycarbonyl)-7-demethyl-19-deoxy-56-O-(2-deoxy-2-((10-methyl-1-oxoundecyl)amino)-beta-D-glucopyranuronosyl)-38-(((3-(dimethylamino)propyl)amino)-carbonyl)-42-O-alpha-D-mannopyranosyl-N^15-methyl-], the MIC result is “≦0.06 mg/L” in data set [1] (Bacillus subtilis ATCC6633); 0.125 µg/mL (≈ 0.0688 µM) in data set [1] (setting [22]); 0.125 µg/mL (≈ 0.0688 µM) in data set [1] (setting [23]); 0.125 µg/mL (≈ 0.0688 µM) in data set [1] (setting [24]); 2 µg/mL in data set [1] (S. aureus Smith + 30% BS); “≦0.06 mg/L” in data set [1] (S. epidermidis ATCC12228). Also, the MIC result in data set [1] (S. pneumoniae Felton UC41) was “≦0.06 mg/L”; in data set [1] (setting [25]), 0.25 µg/mL (≈ 0.138 µM); in data set [1] (Streptococcus pyrogenes SKF 13400), “≦0.06 mg/L”; in data set [2] (E. coli ATCC25922 ref. strain), above 64 µg/mL; in data set [2] (Escherichia coli SKF 12140) it was above 64 µg/mL; in data set [2] (Proteus vulgaris, ATCC881), above 64 µg/mL. Moreover, the MIC in data set [2] (setting [26]) and in data set [3] (Candida albicans) was above 64 µg/mL in each case.
For `CC(C)CCCCCCCCC(=O)N[C@H]1[C@H](Oc2c3cc4cc2Oc2ccc(cc2Cl)[C@@H](O)[C@@H]2NC(=O)[C@H](NC(=O)[C@@H]4NC(=O)[C@H]4NC(=O)[C@@H](Cc5ccc(cc5)O3)NC(=O)[C@H](N(C)C)c3ccc(O)c(c3)Oc3cc(O)c(Cl)c4c3)c3ccc(O)c(c3)-c3c(O[C@H]4O[C@H](CO)[C@@H](O)[C@H](O)[C@@H]4O)cc(O)cc3[C@@H](C(=O)NCCCN(C)C)NC2=O)O[C@H](C(=O)O)[C@@H](O)[C@@H]1O` [Composition B2, N^15,N^15-dimethyl dalbavancin B0], the MIC in data set [1] (ATCC6633, Bacillus subtilis ATCC 6633, read-out: MIC) was at most 0.03 µg/mL; in [1] (ATCC7080, Enterococcus faecalis ATCC 7080, read-out: MIC), 0.06 µg/mL (≈ 0.0328 µM); in data set [1] (ATCC19636, Staphylococcus aureus Smith ATCC 19636, read-out: MIC), 0.125 µg/mL (≈ 0.0683 µM); in data set [1] (Enterococcus faecalis, E. faecalis ATCC29212 ref. strain, read-out: MIC), 0.125 µg/mL (≈ 0.0683 µM); in data set [1] (Staphylococcus aureus, ATCC29213, S. aureus ATCC 29213 ref. strain, read-out: MIC), 0.125 µg/mL (≈ 0.0683 µM); in data set [1] (Staphylococcus aureus, S. aureus Smith + 30% BS, read-out: MIC) it was 2 µg/mL. Also, the MIC in [1] (Staphylococcus epidermidis, ATCC12228, S. epidermidis ATCC 12228, read-out: MIC) was at most 0.03 µg/mL; in [1] (Streptococcus pneumoniae, S. pneumoniae Felton UC41, read-out: MIC), at most 0.03 µg/mL; in [1] (Streptococcus pyrogenes SKF 13400, read-out: MIC), at most 0.03 µg/mL; in data set [2] (ATCC881, Proteus vulgaris ATCC 881, read-out: MIC), 32 µg/mL (≈ 17.5 µM); in [2] (Escherichia coli SKF 12140, read-out: MIC) it was 32 µg/mL (≈ 17.5 µM); in data set [2] (Escherichia coli, E. coli ATCC25922 ref. strain, read-out: MIC) it was 32 µg/mL (≈ 17.5 µM). For the same compound, the MIC was determined as 16 µg/mL (≈ 8.74 µM) in data set [2] (Pseudomonas aeruginosas ATCC 10145, read-out: MIC) and 32 µg/mL (≈ 17.5 µM) in [3] (Candida albicans SKF 2270, read-out: MIC).
As to `CNC1C(=O)NC2Cc3ccc(cc3)Oc3cc4cc(c3OC3OC(C(=O)O)C(O)C(O)C3NC(=O)CCCCCCCCC(C)C)Oc3ccc(cc3Cl)C(O)C3NC(=O)C(NC(=O)C4NC(=O)C(NC2=O)c2cc(cc(O)c2Cl)Oc2cc1ccc2O)c1ccc(O)c(c1)-c1c(OC2OC(CO)C(O)C(O)C2O)cc(O)cc1C(C(=O)NCCCN(C)C)NC3=O` (stereo not shown) [IsoB0], the MIC result in data set [4] (Bacillus subtilis ATCC6633) is “≦0.06 mg/L”; in [4] (setting [22]) it was 0.25 µg/mL (≈ 0.138 µM); in data set [4] (setting [23]) it was 0.25 µg/mL (≈ 0.138 µM); in data set [4] (setting [24]) it was 0.25 µg/mL (≈ 0.138 µM); in data set [4] (S. aureus Smith + 30% BS), 16 µg/mL; in data set [4] (S. epidermidis ATCC12228), 0.125 µg/mL (≈ 0.0688 µM). The MIC in [4] (S. pneumoniae Felton UC41) is 0.125 µg/mL (≈ 0.0688 µM); in [4] (setting [25]), 0.5 µg/mL (≈ 0.275 µM); in data set [4] (Streptococcus pyogenes SKF13400) it was 0.06 µg/mL (≈ 0.033 µM); in data set [6] (E. coli ATCC25922 ref. strain), 64 µg/mL (≈ 35.2 µM); in data set [6] (Escherichia coli SKF 12140), 64 µg/mL (≈ 35.2 µM); in data set [6] (Proteus vulgaris, ATCC881), above 64 µg/mL. Besides, the MIC in data set [6] (setting [26]) and in data set [7] was above 64 µg/mL in each case. Further, in data set [4] (compared with dalbavancin), the “activity against a panel of gram-positive bacteria” value is “very similar to dalbavancin”. Besides, in [5], the “in vivo biological activity” value is “comparable to that of dalbavancin B0”.
For `COc1cccc(OC)c1C(=O)N[C@@H]1C(=O)N2[C@@H]1SC(C)(C)[C@@H]2C(=O)O` [Methicillin], the MIC in [8] (MRSA, S. aureus strain MRSA) was above 8 µg/mL; in [8] (S. aureus strain 25923), 0.12 µg/mL; in data set [8] (S. aureus strain 31005) it was 0.12 µg/mL; in [8] (S. aureus strain 33591), above 8 µg/mL; in [8] (S. aureus strain 307109), above 8 µg/mL; in data set [8] (S. aureus strain Smith), 0.12 µg/mL.
As for `CN[C@H]1C(=O)N[C@@H]2Cc3ccc(cc3)Oc3cc4cc(c3O[C@@H]3O[C@H](C(=O)O)[C@@H](O)[C@H](O)[C@H]3NC(=O)CCCCCCCCC(C)C)Oc3ccc(cc3Cl)[C@@H](O)[C@@H]3NC(=O)[C@H](NC(=O)[C@@H]4NC(=O)[C@@H](NC2=O)c2cc(cc(O)c2Cl)Oc2cc1ccc2O)c1ccc(O)c(c1)-c1c(O[C@H]2O[C@H](CO)[C@@H](O)[C@H](O)[C@@H]2O)cc(O)cc1[C@@H](C(=O)NCCCN(C)C)NC3=O` [^3H-dalbavancin], in data set [9], the “fraction of excreted radioactivity eliminated in feces” value was “⅓” and the “fraction of excreted radioactivity eliminated in urine” value is listed as “⅔”.
Dalbavancin (peptide): the N amounted to 0.82 in data set [10]; 1.38 in data set [13]; 0.9 in [14]; 1.24 in [15]; 0.86 in data set [16]; 0.179 in [17]. The degree of binding estimated from MIC difference in [11] is 96%. In data set [12], this compound came in with a Kd of 3000 nM.
With Penicillin, the MIC in [18] is 0.008 µg/mL.
With Vancomycin hydrochloride (peptide), the Ka was 690000 M⁻¹ in [19]; 340000 M⁻¹ and 360000 M⁻¹ in data set [20]; 290000 M⁻¹ in data set [21]. Further, the N in data set [19] is 1.1; in data set [20], 0.91 and 0.97; in data set [21] it was 1.05.

The record behind these values is patent US20170190744A1 (Vicuron Pharmaceuticals, Inc., priority 2015, published 2017).
